In brackets after ≈: the same amount, converted by molar mass. Like-named read-outs stand apart in the source and are kept apart here. One block for each compound: values may come before it. Peptide text beside a SMILES is read from it.
Experiments:
[1] = tested on: B. subtilis; type: cell-based, Bacillus subtilis
Protocol: (§1) In certain embodiments the MIC assays are performed as described herein in the Examples. For each organism, the media and growth conditions utilized is detailed in Table 8.
(§2) In certain embodiments the MIC assays are performed as follows: For each organism, the media and growth conditions utilized is detailed in Table 8.

[2] = tested on: A. niger; type: cell-based, Aspergillus niger
Protocol: as §1, §2

[3] = tested on: MRSA; type: cell-based, Staphylococcus aureus
Protocol: as §1, §2

[4] = tested on: T. rubrum; type: cell-based, Trichophyton rubrum
Protocol: as §1, §2

[5] = tested on: S. pneumoniae; type: cell-based, Streptococcus pneumoniae
Protocol: as §1, §2

[6] = tested on: S. epidermidis; type: cell-based
Protocol: as §1, §2

[7] = S. pneumoniae, TSB supplemented with 5% yeast extract, 37° C., 10% CO2, 10^6 CFU/ml

SMILES: CSCC[C@H](NC(=O)[C@H](CCCNC(=N)N)NC(=O)[C@H](CCCNC(=N)N)NC(=O)[C@H](CC(C)C)NC(=O)[C@H](CCCNC(=N)N)NC(=O)[C@H](CCC(=O)O)NC(=O)[C@@H](NC(=O)[C@H](CS)NC(=O)CNC(=O)[C@H](CCCNC(=N)N)NC(=O)[C@@H](N)CCCNC(=N)N)[C@@H](C)O)C(=O)N[C@@H](C)C(=O)N[C@@H](CCCNC(=N)N)C(=O)N[C@@H](CCCNC(=N)N)C(=O)N[C@@H](CC(N)=O)C(=O)N[C@@H](C)C(=O)N[C@@H](Cc1c[nH]c2ccccc12)C(=O)N[C@@H](CC(=O)O)C(=O)N[C@@H](CC(C)C)C(=O)N[C@@H](Cc1ccc(O)cc1)C(=O)N[C@@H](C)C(=O)N[C@@H](CCC(=O)O)C(=O)N[C@@H](Cc1c[nH]cn1)C(=O)N[C@@H](Cc1ccccc1)C(=O)N[C@@H](Cc1ccc(O)cc1)C(=O)O [PF-148] (H-RRGCTERLRRMARRNAWDLYAEHFY-OH; N-terminus and C-terminus assumed)
MIC [1]: 50 µM (≈ 161 µg/mL) | MIC [2]: 50 µM (≈ 161 µg/mL)

SMILES: CC[C@H](C)[C@H](NC(=O)[C@H](C)NC(=O)[C@@H]1CCCN1C(=O)[C@H](Cc1ccccc1)NC(=O)[C@@H]1CCCN1C(=O)[C@H](CC(C)C)NC(=O)[C@@H](N)C(C)C)C(=O)N1CCC[C@H]1C(=O)N[C@@H](CC(C)C)C(=O)N[C@@H](CO)C(=O)N[C@@H](CCCNC(=N)N)C(=O)N[C@@H](CCCNC(=N)N)C(=O)N[C@@H](CCCNC(=N)N)C(=O)N[C@@H](C)C(=O)N[C@@H](CS)C(=O)N[C@H](C(=O)N[C@@H](C)C(=O)N[C@@H](C)C(=O)N1CCC[C@H]1C(=O)N[C@@H](CCCNC(=N)N)C(=O)N1CCC[C@H]1C(=O)N[C@@H](CCCNC(=N)N)C(=O)N[C@@H](CO)C(=O)N[C@@H](CCCNC(=N)N)C(=O)N[C@@H](CCC(N)=O)C(=O)N[C@@H](CCCNC(=N)N)C(=O)N[C@@H](C)C(=O)N[C@@H](CO)C(=O)O)C(C)C [PF-168] (H-VLPFPAIPLSRRRACVAAPRPRSRQRAS-OH; N-terminus and C-terminus assumed)
MIC [3]: 50 µM (≈ 156 µg/mL) | MIC [4]: 50 µM (≈ 156 µg/mL) | MIC [2]: 50 µM (≈ 156 µg/mL)

SMILES: CC(C)[C@H](NC(=O)[C@H](C)NC(=O)[C@H](Cc1ccc(O)cc1)NC(=O)[C@@H](N)CC(N)=O)C(=O)N[C@H](C(=O)N[C@@H](CO)C(=O)N[C@@H](Cc1c[nH]cn1)C(=O)N[C@H](C(=O)O)[C@@H](C)O)C(C)C [PF-209] (H-NYAVVSHT-OH; N-terminus and C-terminus assumed)
MIC [3]: 50 µM (≈ 44.5 µg/mL)

SMILES: CC[C@H](C)[C@H](NC(=O)[C@H](CC(C)C)NC(=O)[C@@H]1CCCN1C(=O)[C@@H]1CCCN1C(=O)[C@H](CCCCN)NC(=O)[C@@H](NC(=O)[C@H](Cc1ccc(O)cc1)NC(=O)[C@H](CC(C)C)NC(=O)[C@H](CO)NC(=O)[C@H](CCC(N)=O)NC(=O)[C@H](CCSC)NC(=O)[C@@H](N)C(C)C)C(C)C)C(=O)N[C@@H](CC(C)C)C(=O)N[C@H](C(=O)N[C@H](C(=O)N[C@@H](CCCCN)C(=O)N[C@@H](CC(C)C)C(=O)N[C@@H](C)C(=O)N[C@@H](CCC(N)=O)C(=O)N[C@@H](CCC(N)=O)C(=O)N[C@@H](CC(N)=O)C(=O)O)[C@@H](C)O)C(C)C [PF-511] (H-VMQSLYVKPPLILVTKLAQQN-OH; N-terminus and C-terminus assumed)
MIC [5, 7]: 50 µM (≈ 119 µg/mL)

SMILES: CC[C@H](C)[C@H](NC(=O)[C@H](CCC(=O)O)NC(=O)[C@@H]1CCCN1C(=O)[C@H](CCSC)NC(=O)[C@H](Cc1ccccc1)NC(=O)[C@@H](N)CO)C(=O)N[C@@H](CCC(N)=O)C(=O)N[C@@H](CCCCN)C(=O)N[C@@H](CC(N)=O)C(=O)N[C@H](C(=O)N[C@H](C(=O)N1CCC[C@H]1C(=O)N[C@H](C(=O)N[C@@H](CCC(N)=O)C(=O)N[C@@H](CCSC)C(=O)N[C@@H](CCCCN)C(=O)O)[C@@H](C)O)[C@@H](C)CC)[C@@H](C)O [PF-512] (H-SFMPEIQKNTIPTQMK-OH; N-terminus and C-terminus assumed)
MIC [5, 7]: 50 µM (≈ 94.7 µg/mL)

SMILES: CC(C)C[C@H](NC(=O)CNC(=O)[C@@H](N)CC(C)C)C(=O)N[C@H](C(=O)N[C@@H](C)C(=O)NCC(=O)N[C@H](C(=O)N[C@@H](C)C(=O)N[C@@H](Cc1ccc(O)cc1)C(=O)N[C@@H](C)C(=O)N[C@@H](C)C(=O)N[C@@H](CCC(N)=O)C(=O)N1CCC[C@H]1C(=O)N[C@H](C(=O)N[C@@H](CC(N)=O)C(=O)N[C@@H](CCC(N)=O)C(=O)N1CCC[C@H]1C(=O)N[C@H](C(=O)N[C@@H](CC(N)=O)C(=O)N[C@@H](CCC(N)=O)C(=O)N1CCC[C@H]1C(=O)N[C@H](C(=O)N[C@@H](CC(N)=O)C(=O)N[C@@H](CCC(N)=O)C(=O)N1CCC[C@H]1C(=O)N[C@H](C(=O)N[C@@H](CC(N)=O)C(=O)N[C@@H](CCC(N)=O)C(=O)N1CCC[C@H]1C(=O)N[C@H](C(=O)N[C@@H](CC(N)=O)C(=O)N[C@@H](CCC(N)=O)C(=O)N1CCC[C@H]1C(=O)N[C@H](C(=O)N[C@@H](CC(N)=O)C(=O)N[C@@H](CCC(N)=O)C(=O)N1CCC[C@H]1C(=O)N[C@@H](CCCNC(=N)N)C(=O)N[C@@H](Cc1c[nH]c2ccccc12)C(=O)O)[C@@H](C)O)[C@@H](C)O)[C@@H](C)O)[C@@H](C)O)[C@@H](C)O)[C@@H](C)O)C(C)C)[C@@H](C)O [PF-520] (H-LGLTAGVAYAAQPTNQPTNQPTNQPTNQPTNQPTNQPRW-OH; N-terminus and C-terminus assumed)
MIC [5, 7]: 50 µM (≈ 211 µg/mL)

The next lines start with the values.

MIC [5]: 50 µM (≈ 85.9 µg/mL) | MIC [2]: 25 µM (≈ 43 µg/mL)
SMILES: CC(C)C[C@H](NC(=O)[C@H](CCC(N)=O)NC(=O)[C@H](CO)NC(=O)[C@H](CCC(N)=O)NC(=O)[C@H](CC(C)C)NC(=O)[C@@H](N)CO)C(=O)NCC(=O)N1CCC[C@H]1C(=O)N[C@@H](CS)C(=O)N[C@@H](CC(C)C)C(=O)N[C@@H](Cc1c[nH]cn1)C(=O)N[C@@H](CC(=O)O)C(=O)N[C@@H](CCC(N)=O)C(=O)N[C@@H](CCCNC(=N)N)C(=O)N[C@@H](Cc1c[nH]cn1)C(=O)O [PF-448] (H-SLQSQLGPCLHDQRH-OH; N-terminus and C-terminus assumed)

MIC [1]: 50 µM (≈ 136 µg/mL)
SMILES: CC[C@H](C)[C@H](NC(=O)[C@H](Cc1ccccc1)NC(=O)[C@@H](NC(=O)[C@H](Cc1ccccc1)NC(=O)[C@H](CC(C)C)NC(=O)[C@H](CC(=O)O)NC(=O)[C@@H](NC(=O)[C@H](CS)NC(=O)[C@@H](NC(=O)[C@H](CCCNC(=N)N)NC(=O)[C@H](CC(C)C)NC(=O)[C@@H](NC(=O)[C@@H](N)CC(C)C)C(C)C)[C@@H](C)CC)[C@@H](C)O)[C@@H](C)O)C(=O)N[C@@H](CCCCN)C(=O)N[C@@H](Cc1c[nH]c2ccccc12)C(=O)N[C@H](C(=O)N[C@H](C(=O)N[C@@H](CCCCN)C(=O)N[C@@H](CCC(N)=O)C(=O)N[C@@H](CCCNC(=N)N)C(=O)N[C@@H](CCCCN)C(=O)N[C@@H](CO)C(=O)O)[C@@H](C)CC)[C@@H](C)O [PF-497] (H-LVLRICTDLFTFIKWTIKQRKS-OH; N-terminus and C-terminus assumed)

MIC [5]: 50 µM (≈ 161 µg/mL)
SMILES: CC(C)C[C@H](NC(=O)[C@H](CC(C)C)NC(=O)[C@H](Cc1c[nH]cn1)NC(=O)[C@H](CC(N)=O)NC(=O)[C@H](CCCCN)NC(=O)[C@H](CC(C)C)NC(=O)[C@H](CO)NC(=O)[C@H](CCCNC(=N)N)NC(=O)[C@H](CO)NC(=O)[C@H](C)NC(=O)[C@H](CCC(N)=O)NC(=O)[C@H](CCCCN)NC(=O)[C@H](CO)NC(=O)[C@H](C)NC(=O)[C@H](CCC(N)=O)NC(=O)[C@H](CCCCN)NC(=O)[C@H](CO)NC(=O)[C@H](C)NC(=O)[C@H](CCC(N)=O)NC(=O)[C@H](CCCCN)NC(=O)[C@H](CO)NC(=O)[C@H](C)NC(=O)[C@H](CCC(N)=O)NC(=O)[C@H](CCCCN)NC(=O)[C@H](CO)NC(=O)[C@H](C)NC(=O)[C@H](CCC(N)=O)NC(=O)[C@H](CCCCN)NC(=O)[C@H](CO)NC(=O)[C@H](C)N)C(=O)O [PF-523] (H-ASKQASKQASKQASKQASKQASRSLKNHLL-OH; N-terminus and C-terminus assumed)

MIC [5]: 50 µM (≈ 85.1 µg/mL) | MIC [2]: 50 µM (≈ 85.1 µg/mL)
SMILES: CSCC[C@H](NC(=O)[C@H](CCC(=O)O)NC(=O)[C@H](CO)NC(=O)[C@@H](N)CC(C)C)C(=O)N[C@@H](CCC(=O)O)C(=O)N[C@@H](CCCNC(=N)N)C(=O)N[C@@H](CCCNC(=N)N)C(=O)N[C@@H](CCCNC(=N)N)C(=O)N[C@@H](CC(C)C)C(=O)N[C@@H](CCCNC(=N)N)C(=O)N[C@@H](CCCCN)C(=O)N[C@@H](CCCNC(=N)N)C(=O)N[C@@H](C)C(=O)O [PF-529] (H-LSEMERRRLRKRA-OH; N-terminus and C-terminus assumed)

MIC [3]: 50 µM (≈ 98 µg/mL) | MIC [1]: 25 µM (≈ 49 µg/mL) | MIC [2]: 50 µM (≈ 98 µg/mL)
SMILES: CC[C@H](C)[C@H](NC(=O)[C@H](CCCNC(=N)N)NC(=O)[C@H](CCCNC(=N)N)NC(=O)[C@H](CCCNC(=N)N)NC(=O)[C@@H](NC(=O)[C@H](CCSC)NC(=O)[C@H](CC(=O)O)NC(=O)[C@H](C)NC(=O)[C@H](CCSC)NC(=O)[C@H](C)NC(=O)[C@@H](NC(=O)[C@H](CC(C)C)NC(=O)[C@H](CCCCN)NC(=O)[C@H](CO)NC(=O)[C@H](CCC(=O)O)NC(=O)[C@@H](N)CCCNC(=N)N)[C@@H](C)CC)[C@@H](C)CC)C(=O)O [PF-545] (H-RESKLIAMADMIRRRI-OH; N-terminus and C-terminus assumed)

MIC [3]: 50 µM (≈ 152 µg/mL) | MIC [6]: 50 µM (≈ 152 µg/mL)
SMILES: CC[C@H](C)[C@H](NC(=O)[C@H](CC(N)=O)NC(=O)[C@@H](NC(=O)[C@H](Cc1ccccc1)NC(=O)[C@H](CCC(=O)O)NC(=O)CNC(=O)[C@H](CCC(N)=O)NC(=O)[C@H](Cc1ccccc1)NC(=O)[C@@H](N)CCCCN)[C@@H](C)O)C(=O)NCC(=O)N[C@@H](CCC(N)=O)C(=O)N[C@@H](CO)C(=O)N[C@@H](Cc1ccc(O)cc1)C(=O)N[C@H](C(=O)N[C@H](C(=O)N[C@@H](CO)C(=O)N[C@@H](C)C(=O)N[C@@H](CO)C(=O)N[C@@H](Cc1c[nH]cn1)C(=O)N[C@@H](CCSC)C(=O)N[C@@H](CO)C(=O)N[C@H](C(=O)N[C@@H](CO)C(=O)N[C@@H](CC(C)C)C(=O)N[C@@H](CC(N)=O)C(=O)N[C@H](C(=O)NCC(=O)N[C@@H](CCCCN)C(=O)O)[C@@H](C)O)[C@@H](C)O)C(C)C)[C@@H](C)CC [PF-583] (H-KFQGEFTNIGQSYIVSASHMSTSLNTGK-OH; N-terminus and C-terminus assumed)
